Assays:
[1] = system: DU-145 cells; experiment: MTT cell viability assay, DU-145; format: cell-based; conditions: Homo sapiens, DU-145, 48 h, read-out: Cell growth % at 10 µM, DU-145
Protocol: (§1) The cell lines were obtained from the American Type Culture Collection (ATCC). Five tumor cell lines (MDA-MB-231, MCF-7, HCT116, HTB-54, and DU-145) and two non-tumorigenic cells (184B5 and BEAS-2B) were grown in RPMI 1640 medium (Gibco), and the HT-29 tumor cell line was grown in McCoy’s medium. Both mediums were supplemented with 10% fetal bovine serum (FBS; Gibco) and 1% antibiotics (10.00 units/mL penicillin and 10.00 μg/mL streptomycin; Gibco). Cells were preserved in tissue culture flasks at 37 °C and 5% CO2. The culture medium was replaced every three days.
(§2) The effect of each compound on cell viability was tested using the MTT assay. […] Selected compounds were then tested at seven different concentrations (0.5–100 μM) in MCF-7, HCT116, HT-29, HTB-54, 184B5 and BEAS-2B cells. Cells were seeded at 10^4 per well onto flat-bottomed 96-well culture plates. They were treated with either DMSO or increasing concentration of the corresponding compound for 48 h. Then, they were incubated with 20 μL of 3-(4,5-dimethylthiazol-2-yl)-2,5-diphenyltetrazolium bromide (MTT) (2 mg /mL stock; Aldrich) for 2,5 h and analyzed for their ability to generate a purple formazan dye. These formazan crystals were dissolved in 50 μL of DMSO. The absorbance was measured at a wavelength of 550 nm and the ratio of viable cells was calculated.
(§3) Results are expressed as cell viability % at 10 μM. Selectivity index were calculated as the ratio of the IC50 values determined for the non-malignant and the tumor cells in breast (IC50 (184B5)/IC50 (MCF-7)) and lung (IC50 (BEAS-2B)/IC50 (HTB-54)) cell lines. Data were obtained from at least three independent experiments performed in triplicates.

[2] = system: HCT116 cells; experiment: MTT cell viability assay, HCT116; format: cell-based; conditions: Homo sapiens, HCT-116, 48 h
Protocol: as §1, §2, §3

[3] = system: MCF-7 cells; experiment: MTT cell viability assay, MCF-7; format: cell-based; conditions: for IC50: Homo sapiens, MCF7, MTT, 48 h; for SI (breast): IC50 (184B5)/IC50 (MCF-7)
Protocol: as §1, §2, §3

[4] = system: BEAS-2B cells; experiment: MTT cell viability assay, BEAS-2B (non-tumorigenic); format: cell-based; conditions: Homo sapiens, 48 h, nonmalignant bronchial epithelium
Protocol: as §1, §2, §3

[5] = system: panel of 60 human tumor cell lines; experiment: NCI-60 analysis (One-Dose and Five-Dose), whole panel; format: cell-based; conditions: 48 h; for GI50: Homo sapiens, Five-Dose assay, 60 cell lines; for mean growth percent: One Dose (10 µM), 60 cancer cell lines
Protocol: (§4) Compounds 14a and 17a were submitted to the Developmental Therapeutics Program (DTP) of National Cancer Institute (NCI). Cytotoxicity activity was evaluated by performing One-Dose screening (10^−5 M) against a panel of 60 human tumor cell lines. […] Cells grew in the RPMI 1640 medium containing 5% fetal bovine serum and 2 mM L-glutamine and were inoculated into 96-well microtiter plates in 100 μL at plating densities ranging from 5.000 to 40.000 cells/well. The microtiter plates inoculated with cells were incubated at 37 °C, in 5% humidified CO2 for 24 h prior to addition of experimental drugs. Then, experimental drugs were added, and the microtiter plates were incubated for 48 h. The protocol is available on https://dtp.cancer.gov/discovery_development/nci-60/methodology.htm accessed on 31 December 2022.

[6] = system: SNB-19 (CNS); experiment: NCI-60 Five-Dose assay, SNB-19; format: cell-based; conditions: Homo sapiens, 48 h
Protocol: as §4, with “Cytotoxicity activity was evaluated by performing One-Dose screening (10^−5 M) against a panel of 60 human tumor cell lines.” left out

[7] = system: SK-MEL-5 (melanoma); experiment: NCI-60 Five-Dose assay, SK-MEL-5; format: cell-based; conditions: Homo sapiens, 48 h
Protocol: as §4, with “Cytotoxicity activity was evaluated by performing One-Dose screening (10^−5 M) against a panel of 60 human tumor cell lines.” left out

[8] = system: OVCAR-3 (ovarian); experiment: NCI-60 Five-Dose assay, OVCAR-3; format: cell-based; conditions: Homo sapiens, 48 h
Protocol: as §4

[9] = system: melanoma and ovarian cancer cell lines; experiment: NCI-60 Five-Dose assay, melanoma and ovarian lines; format: cell-based, human
Protocol: as §4, with “Cytotoxicity activity was evaluated by performing One-Dose screening (10^−5 M) against a panel of 60 human tumor cell lines.” left out

[10] = in vitro
Protocol: Franz diffusion cells (Microette 8910130, Hanson Research) were employed to perform this assay. The compounds were dissolved in DMSO at 5 mg/mL and diluted to 500 µg/mL with phosphate-buffered saline (PBS)/EtOH (7:3) to make a stock solution. A total of 10 µL of porcine brain lipid (PBL) diluted in dodecane solution (20 mg/mL) was spread onto a PVDF membrane that was placed between the donor and acceptor compartments, forming a sandwich structure. Then, 4.5 mL of PBS/EtOH (7:3) was added to the acceptor compartment and 700 µL of the stock solution was added to the donor cell. […] The concentration of the compound was calculated from the standard curve and expressed as permeability (Pe) by the following formula [84]:Permeability (cm/s): Pe = {−ln [1 − CA(t)/Ceq]}/[A ∗ (1/VD + 1/VA) ∗ t]
A = filter area ([…]), VD = donor cell volume (0.7 mL), VA = acceptor cell volume (4.5 mL), t = incubation time, CA (t) = compound concentration in acceptor cell at time t, CD (t) = compound concentration in donor cell at time t, and Ceq = [CD(t) ∗ VD + […] ∗ VA]/(VD + VA).
Every sample was analyzed at least in duplicate and the data were reported as mean ± SD.

SMILES | viability at 10 µM [1] [%] | IC50 [2] [µM] | IC50 [3] [µM] | SI (breast) [3] | IC50 [4] [µM] | GI50 [5] [µM] | mean growth percent [5] | GI50 [6] [µM] | GI50 [7] [µM] | GI50 [8] [µM] | LD50 [9] | Papp at 20 h, 500 µg/mL ([10]; PAMPA) [×10⁻⁶ cm/s] | fold higher Pe compared to galantamine ([10]; PAMPA-BBB) [fold] | Pe ± SD ([10]; PAMPA-BBB, porcine brain lipid, 20 h, 25 °C) [×10⁻⁶ cm/s] | BBB Permeation (Experimental) ([10]; class from PAMPA-BBB Pe)
C=CC[Se]C(=O)c1ccccc1OC(C)=O [Compound 14a, 2-(allylselanylcarbonyl)phenylacetate] | 16.9 ± 8.6 | 5.9 ± 0.8 | 9.9 ± 0.9 | 1.0 | 7.1 ± 2.4 | 1.79 | −5.89 | 0.49 | 1.9 | 1.9 | below 9.2 µM | 36.9 ± 0.1 | 3 | 36.92 | High (High BBB permeation predicted; Pe (10^−6 cm s^−1) > 4.0)
C=CC[Se]C(=O)Cc1c(C)n(C(=O)c2ccc(Cl)cc2)c2ccc(OC)cc12 [Compound 17a, Se-allyl 2-[1-(4-chlorobenzoyl)-5-methoxy-2-methyl-1H-indol-3-yl]ethaneselenoate] | 16.3 ± 8.4 | 7 ± 0.9 | 9.8 ± 0.3 | 1.4 | 6.3 ± 2.3 | 1.74 | −26.70 | 0.66 | 1.7 | 1.8 | below 9.2 µM |  |  |  | 

Source: PMC9854712 (Antioxidants, 2023)
